Assay [1] deals with T1, human Cot catalytic domain (30-397 amino acids) (Homo sapiens, UniProt P41279).
T1 construct: Purified recombinant human Cot catalytic domain (30-397 amino acids) was purchased from Cama Biosciences; purchased Cama Biosciences (so in the source)
Briefly: High Throughput Cot Biochemical Assay (KinEASE TR-FRET). As to conditions: read-out: IC50 HTRF. The essentials:
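Recombinant human Cot catalytic domain (aa 30-397), 5 nM, with 1 μM STK3 peptide and 400 μM ATP in MOPS pH 7.0 buffer with MgOAc, DTT, BSA, NP-40, glycerol, 0.1% DMSO. Phosphorylated XL665-peptide detected by Eu-[…] antibody TR-FRET.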

Assay [2] concerns TNFα production in LPS-stimulated human monocytes. Description: Cot Monocyte TNFα Cell Based Assay. As to conditions: Homo sapiens, Monocyte, read-out: EC50 TNF. The essentials: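 Human monocytes (5,000 cells/well) pretreated with compound for 1 hour at 37° C (0.5% DMSO), then stimulated with 50 pg/ml LPS for 4 hours. Total TNFα measured by TR-FRET after overnight antibody incubation at room temp, expressed as percent of control between unstimulated and stimulated cells.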

The mark [3] stands for this setting: Cot biochemical HTRF (KinEASE TR-FRET) assay.
Where [4] appears, read: TNFα in LPS-stimulated human monocytes.
Where [5] appears, read: Cot KinEASE TR-FRET (HTRF) biochemical assay, 400 μM ATP.
The mark [6] stands for this setting: Cot KinEASE TR-FRET, 400 μM ATP.
[7] abbreviates: LPS-stimulated human monocytes, TNFα TR-FRET.

Molecules are shown by their SMILES. Like-named read-outs stand apart in the source and are kept apart here. A value given as a limit tells only on which side of the number the result lay.

T1 sequence (P41279 30-397): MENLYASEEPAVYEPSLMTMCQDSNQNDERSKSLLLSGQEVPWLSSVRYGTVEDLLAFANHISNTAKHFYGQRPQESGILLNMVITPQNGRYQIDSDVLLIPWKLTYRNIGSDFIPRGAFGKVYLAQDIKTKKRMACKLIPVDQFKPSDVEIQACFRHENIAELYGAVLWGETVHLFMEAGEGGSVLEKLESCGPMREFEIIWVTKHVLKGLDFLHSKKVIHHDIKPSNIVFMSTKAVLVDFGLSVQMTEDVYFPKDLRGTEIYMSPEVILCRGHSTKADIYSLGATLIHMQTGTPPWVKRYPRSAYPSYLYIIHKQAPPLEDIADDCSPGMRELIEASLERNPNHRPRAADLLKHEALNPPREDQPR

In the case of `CC(C)(C)N1CCC(n2cc([C@@H](Nc3cc(Cl)c4ncc(C#N)c(Nc5ccc(F)c(Cl)c5)c4c3)c3ccc(F)cc3)nn2)CC1` [Example 836, (S)-6-(((1-(1-(tert-butyl)piperidin-4-yl)-1H-1,2,3-triazol-4-yl)(4-fluorophenyl)methyl)amino)-8-chloro-4-((3-chloro-4-fluorophenyl)amino)quinoline-3-carbonitrile], in assay [1] (setting [3]), the half-inhibitory concentration (IC50) (commonly the concentration that inhibits the measured activity by half) stood at 8 nM. Further, the EC50 (as a rule, the midpoint of the concentration-response curve) in assay [2] (setting [4]) was 241 nM.

For the compound `C[C@@H](Nc1c(C#N)cnc2c(Cl)cc(N[C@@H](c3ccc(Cl)cc3)c3c[nH]nn3)cc12)c1ccccc1` [Example 657, 8-chloro-6-(((S)-(4-chlorophenyl)(1H-1,2,3-triazol-4-yl)methyl)amino)-4-(((R)-1-phenylethyl)amino)quinoline-3-carbonitrile], the IC50 in assay [1] (setting [3]) was 143 nM. For the same compound, the concentration giving a half-maximal response (EC50) in assay [2] (setting [4]) turned out to be 2490 nM.

With `[2H][C@](Nc1cc(Cl)c2ncc(C#N)c(Nc3cnc(F)c(F)c3)c2c1)(c1ccc(F)cc1)c1cnn(CF)n1` [Example 330, (S)-8-chloro-4-((5,6-difluoropyridin-3-yl)amino)-6-(((2-(fluoromethyl)-2H-1,2,3-triazol-4-yl)(4-fluorophenyl)methyl-d)amino)quinoline-3-carbonitrile], in assay [1] (setting [5]), the IC50 is 1420 nM. Besides, the EC50 in assay [2] (setting [4]) was more than 10000 nM.

In the case of `Cc1c([C@H](Nc2cc(Cl)c3ncc(C#N)c(NCC(C)(C)C)c3c2)c2cn(C3(C(F)F)CC3)nn2)cccc1-n1cnnc1` [Example 1070, (S)-8-chloro-6-(((1-(1-(difluoromethyl)cyclopropyl)-1H-1,2,3-triazol-4-yl)(2-methyl-3-(4H-1,2,4-triazol-4-yl)phenyl)methyl)amino)-4-(neopentylamino)quinoline-3-carbonitrile], the IC50 in assay [1] (setting [6]) came out at 2 nM. Further, the EC50 in assay [2] (setting [7]) stood at 272 nM.

With `[2H][C@](Nc1cc(-c2cncnc2)c2ncc(C#N)c(N[C@H](CC)c3ccccc3)c2c1)(c1ccc(F)cc1)c1cn(C2CC2)nn1` [Example 81, 6-(((S)-(1-cyclopropyl-1H-1,2,3-triazol-4-yl)(4-fluorophenyl)methyl-d)amino)-4-(((R)-1-phenylpropyl)amino)-8-(pyrimidin-5-yl)quinoline-3-carboitrile], in assay [1] (setting [5]), the IC50 worked out at 20 nM. Besides, the 50% effective concentration (EC50) in assay [2] (setting [4]) was 316 nM.

Take `CC(C)(C)CNc1c(C#N)cnc2c(C#N)cc(N[C@@H](c3cccc(C4(C#N)CC4)c3)c3cn(C45CC(C4)C5)nn3)cc12` [Example 1129, (S)-6-(((1-(bicyclo[1.1.1]pentan-1-yl)-1H-1,2,3-triazol-4-yl)(3-(1-cyanocyclopropyl)phenyl)methyl)amino)-4-(neopentylamino)quinoline-3,8-dicarbonitrile]: the concentration for half-maximal inhibition (IC50) in assay [1] (setting [6]) was determined as 5 nM. The half-maximal effective concentration (EC50) in assay [2] (setting [7]) stood at 148 nM.

As for `N#Cc1cnc2c(Cl)cc(N[C@@H](c3ccccc3)c3cn(C4CCN(C5COC5)CC4)nn3)cc2c1Nc1ccc(Cl)c(Cl)c1F` [Example 625, (S)-8-chloro-4-((3,4-dichloro-2-fluorophenyl)amino)-6-(((1-(1-(oxetan-3-yl)piperidin-4-yl)-1H-1,2,3-triazol-4-yl)(phenyl)methyl)amino) quinoline-3-carbonitrile], in assay [1] (setting [3]), the 50% inhibitory concentration (IC50) was determined as 116 nM. For the same compound, in assay [2] (setting [4]), the EC50 came to 1160 nM.

With `CC[C@@H](Nc1c(C#N)cnc2c(Cl)cc(N[C@@H](c3cccc(C(=O)N(C)C)c3)c3cn(C4CCN(C(C)(C)C)CC4)nn3)cc12)c1ccccc1` [Example 600, 3-((S)-(1-(1-(tert-butyl)piperidin-4-yl)-1H-1,2,3-triazol-4-yl)((8-chloro-3-cyano-4-(((R)-1-phenylpropyl)amino)quinolin-6-yl)amino)methyl)-N,N-dimethylbenzamide], the IC50 in assay [1] (setting [3]) was 2 nM. For the same compound, in assay [2] (setting [4]), the EC50 amounted to 78 nM.

Take `[2H][C@](Nc1cc(-c2ccnnc2)c2ncc(C#N)c(NCC(C)(C)C)c2c1)(c1ccc(F)cc1)c1cn(C2CC2)nn1` [Example 75, (S)-6-(((1-cyclopropyl-1H-1,2,3-triazol-4-yl)(4-fluorophenyl)methyl-d)amino)-4-(neopentylamino)-8-(pyridazin-4-yl)quinoline-3-carbonitrile]: in assay [1] (setting [5]), the IC50 came to 199 nM. In addition, the EC50 in assay [2] (setting [4]) was more than 1000 nM.
